Assay results as given in patent US11446351B2, “Composition for treating one or more estrogen related diseases” (LIFEARC, priority 2018, dated 2022).
Where a name gives a salt, the structure may show the parent alone. Where a SMILES comes first, the peptide text is derived from it. [ ]: non-standard residue; d: D form. dPhe(4-Cl) = N[C@H](Cc1ccc(Cl)cc1)C(=O)O; d2Nal = N[C@H](Cc1ccc2ccccc2c1)C(=O)O; d(hCit) = NC(=O)NCCCC[C@@H](N)C(=O)O; Lys(iPr) = CC(C)NCCCC[C@H](N)C(=O)O; d3Pal = N[C@H](Cc1cccnc1)C(=O)O

Legend:
Format in all cases: in vivo, human
women [1] = assay: Phase I study (Example 2): bone marker CTX in serum
Experimental: (§1) In order to evaluate the effect of the treatment with Teverelix TFA on the bone mineral density, two biochemical bone mineral markers was measured in the subjects. Telopeptides type I collagen, cross-linked, […] (CTX) was measured in serum of the treated subjects, and deoxypyridinoline (DPD) was measured in the subject's urine.
(§2) Said bone markers were measured on the following days in the test period: 1 (pre-dose), 15, 29, 43, 57, 64
(§3) DPD is a dynamic biochemical marker of bone loss. An increase in DPD levels in an early morning urine specimen is a reliable indicator of increased bone loss. The CTX test measures for the presence and concentration of a crosslink peptide sequence of type I collagen, found, among other tissues, in bone. This specific peptide sequence relates to bone turnover because it is the portion that is cleaved by osteoclasts during bone resorption, and its serum levels are therefore proportional to osteoclastic activity at the time the blood sample is drawn.
(§4) The concentration of DPD and CTX test were carried out at MOS Pharma Services, Central Lab GmbH, Grossmoorbogen 25, 21079 Hamburg, Germany by means of highly sensitive and specific validated chemi-luminescent (CUA) and enzyme-linked immuno-sorbent (ELISA) methods. The results are shown in FIG. 7 and table 6 respectively.

healthy female subjects [2] = assay: Phase I trial (Example 1): progesterone, LH and FSH in serum
Experimental: (§5) A phase I clinical trial with formulation A and B (and placebo) was conducted in order to evaluate the pharmacokinetics, pharmacodynamics, safety and tolerability of Teverelix TFA.
(§6) The formulations were each injected subcutaneous (s.c.) as follows: • A single dosage of formulation A (60 mg Teverelix TFA) administered s.c. on day 3±1 of the menstrual cycle, to 8 healthy female subjects • A single dosage of formulation A placebo was administered s.c. to on day 3±1 of the menstrual cycle, to 4 healthy female subjects • Two dosages of formulation B (45 mg Teverelix TFA) administered s.c. to 8 healthy female subjects. The first dosage on day 3±1 of the menstrual cycle and a second dosage administered on day 10±1 of the menstrual cycle, and • two dosages of formulation B placebo was administered s.c. to 4 healthy female subjects. The first dosage on day 3±1 of the […] menstrual cycle and a second dosage administered on day 10±1 of the menstrual cycle.

women [3] = assay: Phase I study (Example 2): bone marker deoxypyridinoline (DPD) in urine; conditions: 30 mg and 45 mg, days 1-64, FIG. 7
Experimental: as §1, §2, §3, §4

[4] = Phase I study (Example 2): Teverelix TFA concentrations in serum
Experimental: Two formulations comprising either 45 mg or 30 mg Teverelix TFA and a placebo formulations, were prepared as described in example 1, i.e. the following formulations were prepared
The respective formulations were each injected subcutaneous (s.c.) to 24 subjects—12 per group i.e. 8 on active drug 4 on placebo per group. All subjects received a dose on either the active or placebo s.c. on day 3±1 of the menstrual cycle, i.e. • A single dosage of formulation B (45 mg Teverelix TFA) administered s.c. on day 3±1 of the menstrual cycle, • A single dosages of formulation C (30 mg Teverelix TFA) administered s.c. on day 3±1 of the menstrual cycle, and • A single dosage of formulation B placebo or formulation C placebo administered s.c. on day 3±1 of the menstrual cycle.
The concentration of Teverelix TFA, and Estradiol was measured over a period of 63 days. Additionally, the effect on Teverelix TFA on two bone markers was measured.
The mean Teverelix TFA concentration in the serum of the respective subjects was measured.

healthy female subjects [5] = assay: Phase I trial (Example 1): estradiol concentration in serum
Experimental: The Teverelix TFA formulations were manufactured as followed. 0.8 ml or 0.6 ml 5% mannitol were added to the relevant dosage of 60 or 45 mg of the LHRH antagonist Teverelix® trifluoroacetate, respectively. The mixture was stirred using vortex during one minute providing two dosage formulations of Teverelix TFA in a flowing milky pearly microcrystalline aqueous suspensions. The suspensions are made of microcrystals of about 10 μm length. Corresponding placebo formulations, without Teverelix TFA was also prepared
as §5, §6
The mean estradiol concentration in the respective subjects was measured. The results are shown in table 1 and 2, respectively and is depicted in FIG. 1 in relation to the placebo data.

alteration in bone marker serum CTX during the study (women [1]; 30 mg and 45 mg, days 1-64): no significant alteration
CTX in serum, Mean (women [1]; 30 mg, Day 1 (pre-dose)): 16.7 ng/L
CTX in serum, Mean (women [1]; 30 mg, Day 15): 17.1 ng/L
CTX in serum, Mean (women [1]; 30 mg, Day 29): 17 ng/L
CTX in serum, Mean (women [1]; 30 mg, Day 43): 16.7 ng/L
CTX in serum, Mean (women [1]; 30 mg, Day 57): 16.5 ng/L
CTX in serum, Mean (women [1]; 30 mg, Day 64): 16.2 ng/L
CTX in serum, Mean (women [1]; 45 mg, Day 1 (pre-dose)): 22.6 ng/L
CTX in serum, Mean (women [1]; 45 mg, Day 15): 22.4 ng/L
CTX in serum, Mean (women [1]; 45 mg, Day 29): 21.6 ng/L
CTX in serum, Mean (women [1]; 45 mg, Day 43): 22 ng/L
CTX in serum, Mean (women [1]; 45 mg, Day 57): 19.3 ng/L
CTX in serum, Mean (women [1]; 45 mg, Day 64): 17.3 ng/L
alteration in bone marker urine DPD during the study (women [3]): no significant alteration
period with quantifiable levels in serum ([4]; 30 mg dose): 42 days
Mean Teverelix TFA concentration in serum ([4]; 30 mg s.c., 0 h): 0.00 ng/L
period with quantifiable levels in serum ([4]; 45 mg dose): 64 days
Mean Teverelix TFA concentration in serum ([4]; 45 mg s.c., 0 h): 0.00 ng/L
Mean Teverelix TFA concentration in serum ([4]; 30 + 45 mg groups, 0 h): 0.00 ng/L
Mean Teverelix TFA concentration in serum ([4]; 30 + 45 mg groups, 0.5 h): 5.79 ng/L
SMILES: CC(=O)N[C@H](Cc1ccc2ccccc2c1)C(=O)N[C@H](Cc1ccc(Cl)cc1)C(=O)N[C@H](Cc1cccnc1)C(=O)N[C@@H](CO)C(=O)N[C@@H](Cc1ccc(O)cc1)C(=O)N[C@H](CCCCNC(N)=O)C(=O)N[C@@H](CC(C)C)C(=O)N[C@@H](CCCCNC(C)C)C(=O)N1CCC[C@H]1C(=O)N[C@H](C)C(N)=O [Teverelix TFA, N-Ac-d-Nal^1,d-pCl-Phe^2,d-Pal^3,d-(Hci)^6,Lys(iPr)^8,d-Ala^10 trifluoroacetate] (Ac-[d2Nal][dPhe(4-Cl)][d3Pal]SY[d(hCit)]L[Lys(iPr)]P[dA]-NH2; C-terminus assumed)
concentration of progesterone following dosing (healthy female subjects [2]; FIG. 2): decreased
concentration of LH following dosing (healthy female subjects [2]; FIG. 3): decreased
concentration of FSH following dosing (healthy female subjects [2]; FIG. 4): decreased
time at which estradiol returned to near baseline and menses reoccurred in at least one subject (healthy female subjects [5]; 2 × 45 mg one week apart): 1008 h p.f.a
estradiol mean (SD) concentration relative to baseline (healthy female subjects [5]; 2 × 45 mg, after first injection, 48 h p.f.a.): −14.56 (9.95) ng/L
estradiol mean (SD) concentration relative to baseline (healthy female subjects [5]; 2 × 45 mg, after second injection, 312 h p.f.a.): −14.20 (10.85) ng/L
estradiol concentrations when compared to placebo (healthy female subjects [5]; both doses (60 mg; 2 × 45 mg), FIG. 1): significantly reduced
time at which estradiol returned to near baseline and menses reoccurred in at least one subject (healthy female subjects [5]; single 60 mg): 840 h p.f.a
estradiol mean (SD) concentration relative to baseline (healthy female subjects [5]; single 60 mg, 264 h p.f.a): −31.22 (23.11) ng/L
estradiol mean (SD) concentration relative to baseline (healthy female subjects [5]; single 60 mg, 456 h p.f.a): −1.04 (90.98) ng/L
